From article PMC8924211 (Nature Communications, 2022)
Residue numbers refer to the chain shown, from its start.

Tests used:
[1] = tested on: GAL2R over GAL1R; settings: cross-reactivity to galanin receptors; cited from earlier work
Description: In contrast, L^4P contacts with equivalent ECL2 residues with weaker hydrophobicity (L169^ECL2, A170^ECL2, and L172^ECL2) in GAL2R (Fig. 3e, Supplementary Fig. 4b). The structural observation is coincident with our peptide truncation assay.

[2] = biological target: T1, GAL2R mutants (Homo sapiens, UniProt O43603, I85A); test: Calcium assay, HEK293/Gα16 cells, GAL2R mutants; type: cell-based; settings: GAL2R I852.64A
T1 construct: expressed in transfected cells; host or cells: HEK293
T1 sequence (O43603 1-387 I85A): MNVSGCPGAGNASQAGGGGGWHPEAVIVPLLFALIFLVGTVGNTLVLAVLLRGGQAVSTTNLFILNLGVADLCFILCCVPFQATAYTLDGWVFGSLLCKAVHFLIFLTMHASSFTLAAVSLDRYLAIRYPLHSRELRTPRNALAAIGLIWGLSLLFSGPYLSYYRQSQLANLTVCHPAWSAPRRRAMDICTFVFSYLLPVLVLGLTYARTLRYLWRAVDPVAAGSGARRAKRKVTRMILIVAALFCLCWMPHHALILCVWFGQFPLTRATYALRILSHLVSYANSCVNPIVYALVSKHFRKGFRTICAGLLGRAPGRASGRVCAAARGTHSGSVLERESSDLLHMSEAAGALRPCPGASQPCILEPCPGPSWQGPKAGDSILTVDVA

[3] = biological target: T2, GAL2R mutants (Homo sapiens, UniProt O43603, A170S); test: Calcium assay, HEK293/Gα16 cells, GAL2R mutants; type: cell-based; settings: GAL2R A170ECL2S
T2 construct: expressed in transfected cells; host or cells: HEK293
T2 sequence (O43603 1-387 A170S): T1 sequence (O43603 1-387 I85A) with A85I, A170S

[4] = biological target: T3, GAL2R mutants (Homo sapiens, UniProt O43603, Y86A); test: Calcium assay, HEK293/Gα16 cells, GAL2R mutants; type: cell-based; settings: GAL2R Y862.65A
T3 construct: expressed in transfected cells; host or cells: HEK293
T3 sequence (O43603 1-387 Y86A): T1 sequence (O43603 1-387 I85A) with A85I, Y86A

[5] = biological target: T4, GAL2R mutants (Homo sapiens, UniProt O43603, Y164A); test: Calcium assay, HEK293/Gα16 cells, GAL2R mutants; type: cell-based; settings: GAL2R Y1644.64A
T4 construct: expressed in transfected cells; host or cells: HEK293
T4 sequence (O43603 1-387 Y164A): T1 sequence (O43603 1-387 I85A) with A85I, Y164A

[6] = biological target: T5, GAL2R mutants (Homo sapiens, UniProt O43603, H102A); test: Calcium assay, HEK293/Gα16 cells, GAL2R mutants; type: cell-based; settings: GAL2R H1023.29A
T5 construct: expressed in transfected cells; host or cells: HEK293
T5 sequence (O43603 1-387 H102A): T1 sequence (O43603 1-387 I85A) with A85I, H102A

[7] = biological target: GAL1R (Homo sapiens, UniProt P47211); test: Calcium assay, HEK293/Gα16 cells, WT GAL1R; type: cell-based; settings: HEK293/Gα16, calcium response (Supplementary Fig. 9a)
Sequence of GAL1R (P47211 whole entry): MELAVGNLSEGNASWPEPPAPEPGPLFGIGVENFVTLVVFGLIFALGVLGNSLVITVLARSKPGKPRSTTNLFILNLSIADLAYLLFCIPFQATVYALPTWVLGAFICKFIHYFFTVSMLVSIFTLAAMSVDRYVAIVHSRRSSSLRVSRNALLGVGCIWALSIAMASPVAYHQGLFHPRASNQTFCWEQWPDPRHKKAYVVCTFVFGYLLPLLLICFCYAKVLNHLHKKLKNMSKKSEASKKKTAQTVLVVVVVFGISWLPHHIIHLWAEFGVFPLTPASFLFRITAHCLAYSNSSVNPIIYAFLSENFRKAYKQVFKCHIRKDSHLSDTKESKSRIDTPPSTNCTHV

[8] = response of 100 μM spexin compared to WT

Emax ([2]; spexin, replicate 1): no response | Emax ([2]; spexin, replicate 2): no response | Emax ([2]; spexin, replicate 3): no response | Emax ([3]; response of 100 μM spexin compared to WT, mean ± S.E.M.): 17.66±5.3% | EC50 ([3]; spexin, replicate 1): 95.4 nM | Emax ([3]; spexin, replicate 1): 11.3367% | EC50 ([3]; spexin, replicate 2): 151.4 nM | Emax ([3]; spexin, replicate 2): 13.424% | EC50 ([3]; spexin, replicate 3): 150.6 nM | Emax ([3]; spexin, replicate 3): 28.2269% | Emax ([4]; spexin, replicate 1): no response | Emax ([4]; spexin, replicate 2): no response | Emax ([4]; spexin, replicate 3): no response | Emax ([5]; spexin, replicate 1): no response | Emax ([5]; spexin, replicate 2): no response | Emax ([5]; spexin, replicate 3): no response | Emax ([6]; spexin, replicate 1): no response | Emax ([6]; spexin, replicate 2): no response | Emax ([6]; spexin, replicate 3): no response | activation of GAL1R [7]: did not activate
Substance: spexin
affinity for GALR2 versus GALR1 [1]: high affinity for GALR2 but not GALR1 | Emax [2, 8]: NR (NR, no response, refers to response < 10% compared to WT receptor (spexin at 100 μM)) | Emax [4, 8]: NR (NR, no response, refers to response < 10% compared to WT receptor (spexin at 100 μM)) | Emax [5, 8]: NR (NR, no response, refers to response < 10% compared to WT receptor (spexin at 100 μM)) | Emax [6, 8]: NR (NR, no response, refers to response < 10% compared to WT receptor (spexin at 100 μM))
